Measurements as given in patent US10508088B2, “Methods using HDAC11 inhibitors” (FORMA Therapeutics, Inc., priority 2016, dated 2019).
pIC50: −log10 of the molar value.

Molecular target: Full length human recombinant HDAC11 (Homo sapiens (Human), UniProt Q96DB2)
Experiment: Enzymatic HDAC11 assay, electrophoretic mobility shift
Assay type: biochemical
Conditions: substrate FAM-RHKK(tri-fluor-Ac)-NH2, read-out: HDAC11 IC50 Range
Method: The enzymatic HDAC11 assay was performed using electrophoretic mobility shift assay. Full length human recombinant HDAC11 protein was expressed in baculoviral system and purified by affinity chromatography. The enzymatic reactions were assembled in 384 well plates in a total volume of 25 μL in a reaction buffer composing: 100 mM HEPES, pH 7.5, 25 mM KCl, 0.1% bovine serum albumin, 0.01% Triton X-100, 1% DMSO (from compounds) 2 μM of the fluorescently labeled peptide substrate and enzyme. The enzyme was added at a final concentration of 10 nM. The peptide substrate FAM-RHKK(tri-fluor-Ac)-NH2 was used. The compounds were tested at 12 concentrations spaced by 3× dilution intervals. Negative control samples (0%-inhibition in the absence of inhibitor) and positive control samples (100%-inhibition) were assembled in replicates of four in each assay plate. The reactions were incubated at 25° C. and quenched by the addition of 45 μL of termination buffer (100 mM HEPES, pH 7.5, 0.01% Triton X-100, 0.05% SDS).
The terminated assay plates were analyzed on LabChip® 3000 microfluidic electrophoresis instrument (Perkin Elmer/Caliper Life Sciences). The fluorescence intensity of the electrophoretically separated de-acetylated product and substrate peptide was measured. Activity in each sample was determined as the product to sum ratio (PSR):P/(S+P), where P is the peak height of the product peptide and S is the peak height of the substrate peptide. Percent inhibition (Pinh) is determined using the following equation: Pinh=(PSR0%−PSRinh)/(PSR0%−PSR100%)*100,
where PSRinh is the product sum ratio in the presence of inhibitor, PSR0% is the average product sum ration in the absence of inhibitor and PSR100% is the average product sum ratio in 100%-inhibition control samples. The IC50 values of inhibitors were determined by fitting the percent inhibition curves with 4 parameter dose-response model using XLfit 4 software.

Full length human recombinant HDAC11, sequence (Q96DB2 whole entry): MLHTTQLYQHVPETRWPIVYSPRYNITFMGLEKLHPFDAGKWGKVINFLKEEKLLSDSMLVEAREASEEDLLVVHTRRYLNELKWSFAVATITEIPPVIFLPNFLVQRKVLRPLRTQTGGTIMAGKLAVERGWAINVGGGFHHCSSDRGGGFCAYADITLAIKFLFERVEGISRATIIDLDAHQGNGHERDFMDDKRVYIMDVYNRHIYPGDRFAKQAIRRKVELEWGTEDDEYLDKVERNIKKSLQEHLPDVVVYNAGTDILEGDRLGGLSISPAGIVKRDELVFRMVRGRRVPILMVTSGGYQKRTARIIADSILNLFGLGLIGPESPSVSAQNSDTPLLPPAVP

Structure (SMILES) | pIC50
O=C(NO)c1cccc2c1CC1(CCN(Cc3ccccc3)CC1)C2 [II-64, 1′-benzyl-N-hydroxy-1,3-dihydrospiro[indene-2,4′-piperidine]-4-carboxamide] | < 6.00
O=C(NO)c1cccc2c1CC1(CCN(CC3CCCCC3)C1=O)C2 (centres unmarked) [II-44, 1′-(cyclohexylmethyl)-N-hydroxy-2′-oxo-1,3-dihydrospiro[indene-2,3′-pyrrolidine]-4-carboxamide] | < 6.00
O=C(NO)c1cccc2c1CCC1(CCN(c3ccccc3)CC1)O2 [II-92, N-hydroxy-1′-phenylspiro[chromane-2,4′-piperidine]-5-carboxamide] | < 6.00
O=C(NO)c1cccc2c1CC1(CCN(Cc3ccccc3)CC1)C2=O [II-65, 1′-benzyl-N-hydroxy-1-oxo-1,3-dihydrospiro[indene-2,4′-piperidine]-4-carboxamide] | < 6.00
O=C(NO)c1cccc2c1CCC1(CCN(c3ccc(F)cc3)CC1)O2 [II-93, 1′-(4-fluorophenyl)-N-hydroxyspiro[chromane-2,4′-piperidine]-5-carboxamide] | < 6.00
O=C(NO)c1cccc2c1CC1(CC2)CCN(c2ccccc2C(F)(F)F)C1=O (centres unmarked) [II-73, N-hydroxy-2′-oxo-1′-(2-(trifluoromethyl)phenyl)-3,4-dihydro-1H-spiro[naphthalene-2,3′-pyrrolidine]-8-carboxamide] | < 6.00
O=C(NO)c1cccc2c1CC1(CC2)CCN(Cc2ccc(Cl)cc2)C1=O (centres unmarked) [II-69, 1′-(4-chlorobenzyl)-N-hydroxy-2′-oxo-3,4-dihydro-1H-spiro[naphthalene-2,3′-pyrrolidine]-8-carboxamide] | < 6.00
O=C(NO)c1cccc2c1OC1(CC2)CCN(C(=O)Cc2ccccc2)CC1 [II-79, N-hydroxy-1′-(2-phenylacetyl)spiro[chromane-2,4′-piperidine]-8-carboxamide] | < 6.00
O=C(NO)c1cccc2c1CC1(CCN(C3CC3)CC1)C2 [II-63, 1′-cyclopropyl-N-hydroxy-1,3-dihydrospiro[indene-2,4′-piperidine]-4-carboxamide] | < 6.00
O=C(NO)c1cccc2c1CCC1(CCN(Cc3ccc(C(F)(F)F)cc3)C1=O)C2 (centres unmarked) [II-85, N-hydroxy-2′-oxo-1′-(4-(trifluoromethyl)benzyl)-3,4-dihydro-1H-spiro[naphthalene-2,3′-pyrrolidine]-5-carboxamide] | > 6.30
Cc1noc(C)c1CN1CCC2(Cc3cccc(C(=O)NO)c3C2)C1=O (centres unmarked) [II-50, 1′-((3,5-dimethylisoxazol-4-yl)methyl)-N-hydroxy-2′-oxo-1,3-dihydrospiro[indene-2,3′-pyrrolidine]-4-carboxamide] | < 6.00
O=C(NO)c1cccc2c1CC1(CCN(C(=O)c3ccc(C(F)(F)F)cc3)C1)C2 (centres unmarked) [II-58, N-hydroxy-1′-(4-(trifluoromethyl)benzoyl)-1,3-dihydrospiro[indene-2,3′-pyrrolidine]-4-carboxamide] | < 6.00
O=C(NO)c1cccc2c1OC1(CC2)CCN(C(=O)C2(c3cccc(C(F)(F)F)c3)CC2)CC1 [II-78, N-hydroxy-1′-(1-(3-(trifluoromethyl)phenyl)cyclopropane-1-carbonyl)spiro[chromane-2,4′-piperidine]-8-carboxamide] | > 6.30
O=C(NO)c1cccc2c1CC1(CCN(Cc3noc(C4CCOCC4)n3)C1=O)C2 (centres unmarked) [II-49, N-hydroxy-2′-oxo-1′-((5-(tetrahydro-2H-pyran-4-yl)-1,2,4-oxadiazol-3-yl)methyl)-1,3-dihydrospiro[indene-2,3′-pyrrolidine]-4-carboxamide] | < 6.00
CC(=O)N1CCC2(CC1)Cc1cccc(C(=O)NO)c1C2 [II-60, 1′-acetyl-N-hydroxy-1,3-dihydrospiro[indene-2,4′-piperidine]-4-carboxamide] | < 6.00
O=C(NO)c1cccc2c1OC1(CC2)CCN(c2ccc(C(F)(F)F)cn2)CC1 [II-82, N-hydroxy-1′-(5-(trifluoromethyl)pyridin-2-yl)spiro[chromane-2,4′-piperidine]-8-carboxamide] | < 6.00
CC1(C(=O)N2CCC3(CCc4cccc(C(=O)NO)c4O3)CC2)CCOCC1 [II-77, N-hydroxy-1′-(4-methyltetrahydro-2H-pyran-4-carbonyl)spiro[chromane-2,4′-piperidine]-8-carboxamide] | < 6.00
O=C(NO)c1cccc2c1CC1(CCN(Cc3ccc(C(F)(F)F)cc3)C1)C2 (centres unmarked) [II-56, N-hydroxy-1′-(4-(trifluoromethyl)benzyl)-1,3-dihydrospiro[indene-2,3′-pyrrolidine]-4-carboxamide] | 6.00 to 6.30
O=C(NO)c1cccc2c1CC1(CCN(Cc3ccc(OC(F)(F)F)cc3)C1=O)C2 (centres unmarked) [II-27, N-hydroxy-2′-oxo-1′-(4-(trifluoromethoxy)benzyl)-1,3-dihydrospiro[indene-2,3′-pyrrolidine]-4-carboxamide] | > 6.30
CC(=O)N1CCC2(CCc3c(cccc3C(=O)NO)O2)CC1 [II-91, 1′-acetyl-N-hydroxyspiro[chromane-2,4′-piperidine]-5-carboxamide] | < 6.00

The next lines start with the values.

pIC50 | Structure (SMILES)
6.00 to 6.30 | Cc1cccc(CN2CCC3(Cc4cccc(C(=O)NO)c4C3)C2=O)c1 (centres unmarked) [II-17, N-hydroxy-1′-(3-methylbenzyl)-2′-oxo-1,3-dihydrospiro[indene-2,3′-pyrrolidine]-4-carboxamide]
> 6.30 | O=C(NO)c1cccc2c1CC1(CCN(Cc3cccc(Cl)c3Cl)C1=O)C2 (centres unmarked) [II-22, 1′-(2,3-dichlorobenzyl)-N-hydroxy-2′-oxo-1,3-dihydrospiro[indene-2,3′-pyrrolidine]-4-carboxamide]
< 6.00 | O=C(NO)c1cccc2c1CC1(CCN(Cc3csc(-c4ccccc4)n3)C1=O)C2 (centres unmarked) [II-34, N-hydroxy-2′-oxo-1′-((2-phenylthiazol-4-yl)methyl)-1,3-dihydrospiro[indene-2,3′-pyrrolidine]-4-carboxamide]
> 6.30 | O=C(NO)c1cccc2c1CC1(CCN(Cc3cccc(C(F)(F)F)c3F)C1=O)C2 (centres unmarked) [II-43, 1′-(2-fluoro-3-(trifluoromethyl)benzyl)-N-hydroxy-2′-oxo-1,3-dihydrospiro[indene-2,3′-pyrrolidine]-4-carboxamide]
< 6.00 | O=C(NO)c1cccc2c1CC1(CCN(Cc3ccccc3Cl)C1=O)C2 (centres unmarked) [II-25, 1′-(2-chlorobenzyl)-N-hydroxy-2′-oxo-1,3-dihydrospiro[indene-2,3′-pyrrolidine]-4-carboxamide]
> 6.30 | O=C(NO)c1cccc2c1CC1(CCN(Cc3ccc(Cl)c(Cl)c3)C1=O)C2 (centres unmarked) [II-38, 1′-(3,4-dichlorobenzyl)-N-hydroxy-2′-oxo-1,3-dihydrospiro[indene-2,3′-pyrrolidine]-4-carboxamide]
> 6.30 | O=C(NO)c1cccc2c1CC1(CCN(Cc3cccc(Cl)c3)C1=O)C2 (centres unmarked) [II-30, 1′-(3-chlorobenzyl)-N-hydroxy-2′-oxo-1,3-dihydrospiro[indene-2,3′-pyrrolidine]-4-carboxamide]
> 6.30 | O=C(NO)c1cccc2c1CC1(CCN(Cc3cccc(C(F)(F)F)c3)C1=O)C2 (centres unmarked) [II-31, N-hydroxy-2′-oxo-1′-(3-(trifluoromethyl)benzyl)-1,3-dihydrospiro[indene-2,3′-pyrrolidine]-4-carboxamide]
6.00 to 6.30 | O=C(NO)c1cccc2c1CC1(CCN(Cc3ccc(F)cc3)C1=O)C2 (centres unmarked) [II-7, 1′-(4-fluorobenzyl)-N-hydroxy-2′-oxo-1,3-dihydrospiro[indene-2,3′-pyrrolidine]-4-carboxamide]
< 6.00 | O=C(NO)c1cccc2c1CC1(CCN(Cc3ccc(-n4cccn4)nc3)C1=O)C2 (centres unmarked) [II-47, 1′-((6-(1H-pyrazol-1-yl)pyridin-3-yl)methyl)-N-hydroxy-2′-oxo-1,3-dihydrospiro[indene-2,3′-pyrrolidine]-4-carboxamide]
> 6.30 | O=C(NO)c1cccc2c1CC1(CCN(Cc3cccc(OC(F)(F)F)c3)C1=O)C2 (centres unmarked) [II-42, N-hydroxy-2′-oxo-1′-(3-(trifluoromethoxy)benzyl)-1,3-dihydrospiro[indene-2,3′-pyrrolidine]-4-carboxamide]
6.00 to 6.30 | O=C(NO)c1cccc2c1CC1(CCN(Cc3c(Cl)cccc3Cl)C1=O)C2 (centres unmarked) [II-21, 1′-(2,6-dichlorobenzyl)-N-hydroxy-2′-oxo-1,3-dihydrospiro[indene-2,3′-pyrrolidine]-4-carboxamide]
< 6.00 | COc1ccc(CN2CCC3(Cc4cccc(C(=O)NO)c4C3)C2=O)cc1 (centres unmarked) [II-19, N-hydroxy-1′-(4-methoxybenzyl)-2′-oxo-1,3-dihydrospiro[indene-2,3′-pyrrolidine]-4-carboxamide]
> 6.30 | O=C(NO)c1cccc2c1C[C@@]1(CCN(Cc3ccc(Cl)c(C(F)(F)F)c3)C1=O)C2 [II-3, (R)-1′-(4-chloro-3-(trifluoromethyl)benzyl)-N-hydroxy-2′-oxo-1,3-dihydrospiro[indene-2,3′-pyrrolidine]-4-carboxamide]
> 6.30 | O=C(NO)c1cccc2c1CC1(CCN(Cc3cccc(-c4ccccc4)c3)C1=O)C2 (centres unmarked) [II-18, 1′-([1,1′-biphenyl]-3-ylmethyl)-N-hydroxy-2′-oxo-1,3-dihydrospiro[indene-2,3′-pyrrolidine]-4-carboxamide]
